Data: patent publication US4347319A, “Microbiological epoxidation process” (priority 1980, dated 1982)

How the values were obtained:
[1] = tested on: Candida utilis ATCC 26387; assay: Oxidation of sec-alcohols to ketones by cell suspensions of yeasts; type: cell-based; conditions: sec-alcohol to methyl ketone
[2] = tested on: purified secondary alcohol dehydrogenase from Pichia sp. NRRL Y-11,328; assay: Substrate specificity, electron acceptor and stoichiometry of purified yeast SADH; type: biochemical; conditions: examined spectrophotometrically
[3] = tested on: cell extract of Hansenula polymorpha ATCC 26,012; assay: Oxidation of secondary alcohols to methylketone by cell extracts of yeasts; type: biochemical
[4] = tested on: cell extract of Torulopsis sp. strain A1 NRRL-Y-11,419; assay: as above; type: biochemical
[5] = tested on: cell-free soluble extract of Pseudomonas sp. CRL 75 ATCC 21439; conditions: growth substrate CH3 OH; NAD added
Procedure: To prepare the cell-free secondary alcohol dehydrogenous (SADH) system, the washed cells were disrupted with a Wave Energy Ultrasonic Oscillator, Model W201 (Wave Energy System, Inc., Newtown, Pa.) and centrifuged at 20,000×g. for 30 minutes. The clear supernatant contained the SADH activity. The enzyme activity was measured with a fluorescence spectrophotometer (Perkin Elmer, Model MPF 44A) by following the formation of reduced NAD (EX 340 nm, Em 460 nm). The formation of reduced NAD was also followed with an absorption spectrophotometer at 340 nm. The assay system (3 ml.) contained: potassium phosphate buffer pH 7.0; 150 μmol.; NAD 1 μmol.; a given amount of enzyme preparation; and secondary alcohol 10 μmol. The reaction was started by the addition of substrate. One unit of enzyme activity represents the reduction of one μmole NAD per minute. Protein concentrations were determined by the Lowry method as referenced above.

[6] = tested on: Torulopsis sp. Strain A1 (NRRLY-11,419); assay: Oxidation of sec-alcohols to ketones by cell suspensions of yeasts; type: cell-based; conditions: sec-alcohol to methyl ketone
[7] = tested on: cell extract of Candida utilis ATCC 26,387; assay: Oxidation of secondary alcohols to methylketone by cell extracts of yeasts; type: biochemical
[8] = tested on: Methylobacter capsulatus (Y, NRRL-B-11,201); assay: Oxidation by cell suspensions of methane-grown cells; type: cell-based; conditions: growth substrate Methane; n-alkane to secondary alcohol
Procedure: (§1) The pH of the nutrient medium was adjusted to 7.0 by the addition of acid or base and 50 ml samples of the nutrient medium were charged into a plurality of 300 ml shaker flasks. The shaker flasks were inoculated with an inoculating loop of cells from an agar plate containing homogeneous colonies of the microorganisms on the plate (the purity of the isolates was confirmed by microscopic examination. The isolates had been maintained on agar plates under an atmosphere of methane and air having a 1:1 v/v gas ratio which had been transferred evey two weeks. The gaseous phase of the inoculated flasks was then replaced with a gas mixture comprised of methane and air having a ratio of 1:1 on a v/v basis. The inoculated flasks were sealed air tight and were incubated on a rotary shaker of orbital radius 2.5 cm at 250 rpm and at 30° C. for two days until turbidity in the medium had developed.
(§2) The cells were harvested by centrifugation at 10,000×g. at 4° C. for 30 minutes. The cell pellet was washed twice with a 0.15 M phosphate buffer at a pH of 7.0 (containing 0.002 M MgCl2). The washed cells were then suspended in a 0.15 M phosphate buffer at pH 7.0.
(§3) A 0.5 ml sample of each washed cell suspension (2 mg cells) was put into 10 ml vials at 4° C. which were sealed with a rubber cap. The gaseous phase of the vials was removed with vacuum and then was replaced with a gas mixture of the oxidative substrate (e.g., methane) and oxygen at a 1:1 v/v ratio. The vials were then incubated at 30 ° C. on a rotary shaker at 300 rpm. Samples of product (3 μl) were withdrawn periodically with a microsyringe and the products were analyzed by gas chromatography (ionization flame detector column).
(§4) The conditions for preparing the cell suspensions or the cell-free particulate fractions from methane-grown methylotroph microorganisms is the same as described above.

[9] = tested on: Methylosinus trichosporium OB3b (NRRL B-11,196); assay: as above; type: cell-based; conditions: growth substrate Methane; n-alkane to secondary alcohol
Procedure: as §1, §2, §3, §4

[10] = tested on: Methylococcus capsulatus (Texas, ATCC 19,069); assay: as above; type: cell-based; conditions: growth substrate Methane; n-alkane to secondary alcohol
Procedure: as §1, §2, §3, §4

[11] = biological target: T1, cell-free fractions of Methylococcus capsulatus (CRL M1, NRRL B-11,219) (Methylococcus capsulatus, UniProt G1UBD1+Q603F1+Q607G3); assay: Epoxidation and hydroxylation activities in cell-free fractions; type: biochemical
T1 sequence (G1UBD1 33-414): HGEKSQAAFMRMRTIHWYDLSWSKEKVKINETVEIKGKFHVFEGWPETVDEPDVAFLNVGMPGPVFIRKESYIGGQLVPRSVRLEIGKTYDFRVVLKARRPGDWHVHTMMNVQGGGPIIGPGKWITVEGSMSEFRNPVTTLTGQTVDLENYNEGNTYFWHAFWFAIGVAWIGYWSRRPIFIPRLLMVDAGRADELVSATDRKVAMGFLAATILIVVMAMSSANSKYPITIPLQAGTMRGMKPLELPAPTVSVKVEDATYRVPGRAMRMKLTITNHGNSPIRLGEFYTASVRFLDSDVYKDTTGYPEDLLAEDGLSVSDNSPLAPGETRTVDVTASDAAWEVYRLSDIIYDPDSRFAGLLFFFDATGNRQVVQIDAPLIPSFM
T1 sequence (Q607G3 1-247): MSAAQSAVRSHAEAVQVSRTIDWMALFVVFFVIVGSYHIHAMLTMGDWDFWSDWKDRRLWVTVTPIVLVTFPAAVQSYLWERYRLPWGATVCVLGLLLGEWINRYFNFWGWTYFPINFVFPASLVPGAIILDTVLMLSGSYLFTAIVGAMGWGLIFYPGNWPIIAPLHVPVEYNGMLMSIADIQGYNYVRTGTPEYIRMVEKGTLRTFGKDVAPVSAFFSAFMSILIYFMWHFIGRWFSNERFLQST
T1 sequence (Q603F1 1-260): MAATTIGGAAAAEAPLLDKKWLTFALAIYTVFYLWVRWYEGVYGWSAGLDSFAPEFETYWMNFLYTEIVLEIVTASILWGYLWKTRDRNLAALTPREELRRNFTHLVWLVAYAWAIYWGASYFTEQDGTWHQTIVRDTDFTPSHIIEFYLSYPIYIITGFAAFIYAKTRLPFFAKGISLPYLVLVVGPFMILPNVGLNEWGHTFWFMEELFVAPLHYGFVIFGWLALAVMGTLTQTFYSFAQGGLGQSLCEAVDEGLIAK
Procedure: Cells of methane-grown Methylococcus capsulatus (CRL M1, NRRL B-11,219) were obtained by the method of Example 1. […] However, when the cells were disrupted by passing twice through a French pressure cell (1000 Kg. pressure), both activities were found in the crude extract after 10,000×g. centrifugation. All of the activity in the crude extract was collected as a particulate fraction by further centrifugation of the crude extract at 40,000×g. for 90 min. at 4° C.
^a The cells were disrupted by French Press as described above. NADH
[…] was added into the reaction mixture where indicated.
The amount of protein in the particulate fraction and the 40,000 ×
g. supernatant fraction used was 1 mg. and 2.5 mg., respectively. Each
assay contained 0.5 ml. reaction mixture.

[12] = 2-butanol as a substrate, spectrophotometrically
[13] = methanol-grown, cell extract + NAD^+, sec. alcohol to methyl ketone, gas chromatography
[14] = particulate fraction (10,000 × g.-40,000 × g.), 1 mg. protein
[15] = supernatant fraction of 40,000 × g., 2.5 mg. protein

CCC(C)O (centres unmarked) [2-Butanol]
Conversion Rate ([1]; growth substrate Ethanol): 5.2 μmoles/hr/mg of protein | Conversion Rate ([1]; growth substrate Methanol): 6.8 μmoles/hr/mg of protein | Conversion Rate ([1]; growth substrate Methylamine): 5.0 μmoles/hr/mg of protein | Conversion Rate ([1]; growth substrate Methylformate): 6.2 μmoles/hr/mg of protein | Conversion Rate ([1]; growth substrate Propylamine): 4.2 μmoles/hr/mg of protein | oxidation by the purified enzyme [2]: catalyzed the oxidation | specific activities [3, 12]: 85 nmoles NAD^+ reduced per min. per mg. protein | Conversion Rate [3, 13]: 5.2 μmoles/hr/mg Protein | specific activities [4, 12]: 62 nmoles NAD^+ reduced per min. per mg. protein | Conversion Rate [4, 13]: 4.9 μmoles/hr/mg Protein | Conversion Rate 2-butanol to 2-butanone [5]: 25.0 nmoles/min/mg protein | Conversion Rate ([6]; growth substrate Ethanol): 4.7 μmoles/hr/mg of protein | Conversion Rate ([6]; growth substrate Methanol): 4.9 μmoles/hr/mg of protein | Conversion Rate ([6]; growth substrate Methylamine): 4.5 μmoles/hr/mg of protein | Conversion Rate ([6]; growth substrate Methylformate): 4.9 μmoles/hr/mg of protein | Conversion Rate ([6]; growth substrate Propylamine): 3.8 μmoles/hr/mg of protein | specific activities [7, 12]: 78 nmoles NAD^+ reduced per min. per mg. protein | Conversion Rate [7, 13]: 4.92 μmoles/hr/mg Protein

CCCC [Butane]
Conversion Rate [8]: 0.09 μmoles/hr/^5 mg. protein | Conversion Rate [9]: 1.5 μmoles/hr/^5 mg. protein | Conversion Rate [10]: 1.0 μmoles/hr/^5 mg. protein

C [Methane]
Oxidation Rate [11, 14]: 500 nmoles/30 min/assay | Oxidation Rate ([11]; particulate fraction + NADH): 650 nmoles/30 min/assay | Oxidation Rate ([11]; supernatant fraction + NADH): 0 nmoles/30 min/assay | Oxidation Rate [11, 15]: 0 nmoles/30 min/assay

CCC [Propane]
Conversion Rate [8]: 0.20 μmoles/hr/^5 mg. protein | Conversion Rate [9]: 2.5 μmoles/hr/^5 mg. protein | Conversion Rate [10]: 1.1 μmoles/hr/^5 mg. protein

C=CC [Propylene]
Oxidation Rate [11, 14]: 750 nmoles/30 min/assay | Oxidation Rate ([11]; particulate fraction + NADH): 900 nmoles/30 min/assay | Oxidation Rate ([11]; supernatant fraction + NADH): 0 nmoles/30 min/assay | Oxidation Rate [11, 15]: 0 nmoles/30 min/assay
